# Laboratory results published in article PMC5363571 (Oncotarget, 2016).
# Structures can show the parent of a compound that is named as a salt.
# Target: USP7 (Homo sapiens, UniProt Q93009)
# Test: biochemical
# Parameters: Ub-AMC hydrolysis by recombinant USP7 (20 nM), 30 min pre-incubation, fluorescence read-out
# Details: read-out: % Inhibition at 50 μM
# Chain of USP7 (Q93009 whole entry): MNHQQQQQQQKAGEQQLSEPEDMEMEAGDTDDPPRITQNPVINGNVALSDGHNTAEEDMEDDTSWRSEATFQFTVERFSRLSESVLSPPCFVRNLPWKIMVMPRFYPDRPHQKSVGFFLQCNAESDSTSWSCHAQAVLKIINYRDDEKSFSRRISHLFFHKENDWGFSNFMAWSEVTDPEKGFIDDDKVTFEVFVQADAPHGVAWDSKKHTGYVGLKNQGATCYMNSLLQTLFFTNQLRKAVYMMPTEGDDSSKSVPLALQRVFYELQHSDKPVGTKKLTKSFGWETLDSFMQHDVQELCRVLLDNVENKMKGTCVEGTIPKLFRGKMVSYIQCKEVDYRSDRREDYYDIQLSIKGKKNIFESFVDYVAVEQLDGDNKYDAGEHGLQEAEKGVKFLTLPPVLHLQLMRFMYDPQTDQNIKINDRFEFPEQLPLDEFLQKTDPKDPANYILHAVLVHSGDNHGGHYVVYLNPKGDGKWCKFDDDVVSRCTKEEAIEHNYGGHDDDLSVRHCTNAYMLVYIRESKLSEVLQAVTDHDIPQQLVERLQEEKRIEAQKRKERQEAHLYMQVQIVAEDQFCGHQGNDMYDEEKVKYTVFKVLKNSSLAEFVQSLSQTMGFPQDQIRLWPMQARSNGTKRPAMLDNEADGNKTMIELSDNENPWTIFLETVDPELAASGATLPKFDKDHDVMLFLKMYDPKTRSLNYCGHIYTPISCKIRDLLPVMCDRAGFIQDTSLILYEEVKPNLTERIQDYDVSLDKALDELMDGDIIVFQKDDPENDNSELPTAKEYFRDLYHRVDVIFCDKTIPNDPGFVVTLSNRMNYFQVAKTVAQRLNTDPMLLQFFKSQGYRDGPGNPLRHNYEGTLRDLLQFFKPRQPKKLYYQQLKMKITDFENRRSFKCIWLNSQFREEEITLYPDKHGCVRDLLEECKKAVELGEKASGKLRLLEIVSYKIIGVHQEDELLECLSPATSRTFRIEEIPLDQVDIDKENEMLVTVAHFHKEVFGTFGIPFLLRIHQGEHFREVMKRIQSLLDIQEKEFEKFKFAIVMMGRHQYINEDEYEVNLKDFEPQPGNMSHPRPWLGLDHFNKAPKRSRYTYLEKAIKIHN
row,inhibition at 50 µM [%],SMILES
1,8.6,CCn1cc(C(=O)O)c(=O)c2cc(F)c(N3CCNC(C)C3)c(F)c21 (stereo not drawn) [Lomefloxacin HCl]
2,< 5,COC(=O)c1ccc(O)c2nc3c(C=O)c(O)cc(O)c3nc12 [Lomofungin]
3,20.4,CCOC(=O)N1CCC(=C2c3ccc(Cl)cc3CCc3cccnc32)CC1 [Loratadine]
4,< 5,CCCCCN(CCCCC)C(=O)C(CCC(=O)O)NC(=O)c1ccc(Cl)c(Cl)c1 (stereo not drawn) [Lorglumide]
5,< 5,CCCCc1nc(Cl)c(CO)n1Cc1ccc(-c2ccccc2-c2nnn[nH]2)cc1 [Losartan potassium]
6,< 5,C=C(C)[C@@H]1CC[C@]2(C)CC[C@]3(C)[C@H](CC[C@@H]4[C@@]5(C)CC[C@H](O)C(C)(C)[C@@H]5CC[C@]43C)[C@@H]12 [Lupeol]
7,< 5,C[C@H]1[C@H](C)CC[C@]2(C(=O)O)CC[C@]3(C)C(=CC[C@@H]4[C@@]5(C)C[C@@H](O)[C@H](O)[C@@](C)(CO)[C@@H]5[C@H](O)C[C@]43C)[C@H]12 [Madecassic acid]
8,< 5,COC(=O)C1=C(C)NC(C)=C(C(=O)OCCN2CCN(C(c3ccccc3)c3ccccc3)CC2)C1c1cccc([N+](=O)[O-])c1 (stereo not drawn) [Manidipine]
9,11.3,CNCCCC12CCC(c3ccccc31)c1ccccc12 [Maprotiline HCl]
10,< 5,COC(=O)Nc1nc2cc(C(=O)c3ccccc3)ccc2[nH]1 [Mebendazol]
11,< 5,CNC1(C)C2CCC(C2)C1(C)C (stereo not drawn) [Mecamylamine HCl]
12,< 5,CC(=O)O[C@]1(C(C)=O)CC[C@H]2[C@@H]3C[C@H](C)C4=CC(=O)CC[C@]4(C)[C@H]3CC[C@@]21C [Medroxyprogesterone 17-acetate]
13,< 5,Cc1cccc(Nc2ccccc2C(=O)O)c1C [Mefenamic acid]
14,< 5,CC(=O)O[C@]1(C(C)=O)CC[C@H]2[C@@H]3C=C(C)C4=CC(=O)CC[C@]4(C)[C@H]3CC[C@@]21C [Megestrol acetate]
15,< 5,COc1ccc2[nH]cc(CCNC(C)=O)c2c1 [Melatonin]
16,< 5,C=C1C[C@H]2[C@@H]3C=C(C)C4=CC(=O)CC[C@]4(C)[C@H]3CC[C@]2(C)[C@@]1(OC(C)=O)C(C)=O [Melengestrol acetate]
17,< 5,Cc1cnc(NC(=O)C2=C(O)c3ccccc3S(=O)(=O)N2C)s1 [Meloxicam]
18,< 5,CC12CC3CC(C)(C1)CC(N)(C3)C2 [Memantine HCl]
19,< 5,COc1ccc(CN(CCN(C)C)c2ccccn2)cc1 [Mepyramine maleate]
20,16.5,CN1CCCCC1CCN1c2ccccc2Sc2ccc([S+](C)[O-])cc21 (stereo not drawn) [Mesoridazine besylate]
21,< 5,CN1C[C@@H](NS(=O)(=O)N(C)C)C[C@@H]2c3cccc4c3c(cn4C)C[C@H]21 [Mesulergine HCl]
22,8.6,CN(C)C(=N)NC(=N)N [Metformin]
23,< 5,Cn1ccnc1S [Methimazole]

row,inhibition at 50 µM [%],SMILES
1,< 5,C[C@](N)(Cc1ccc(O)c(O)c1)C(=O)O [Methyldopa]
2,< 5,C[C@H]1C[C@@H]2[C@H]([C@@H](O)C[C@@]3(C)[C@H]2CC[C@]3(O)C(=O)CO)[C@@]2(C)C=CC(=O)C=C12 [Methylprednisolone]
3,< 5,CC[C@@H](CO)NC(=O)[C@@H]1C=C2c3cccc4c3c(cn4C)C[C@H]2N(C)C1 [Methysergide]
4,< 5,CCN(CC)CCNC(=O)c1cc(Cl)c(N)cc1OC [Metoclopramide HCl]
5,< 5,COCCc1ccc(OCC(O)CNC(C)C)cc1 (stereo not drawn) [Metoprolol tartrate]
6,< 5,Cc1ncc([N+](=O)[O-])n1CCO [Metronidazole]
7,< 5,CC[C@H](C)C(=O)O[C@H]1CCC=C2C=C[C@H](C)[C@H](CC[C@@H]3C[C@@H](O)CC(=O)O3)[C@H]21 [Mevastatin]
8,21.3,CN1CCN2c3ccccc3Cc3ccccc3C2C1 (stereo not drawn) [Mianserin hcl]
9,< 5,Clc1ccc(COC(Cn2ccnc2)c2ccc(Cl)cc2Cl)c(Cl)c1 (stereo not drawn) [Miconazole]
10,< 5,CC#C[C@]1(O)CC[C@H]2[C@@H]3CCC4=CC(=O)CCC4=C3[C@@H](c3ccc(N(C)C)cc3)C[C@@]21C [Mifepristone]
11,< 5,CCCCN1C[C@H](O)[C@@H](O)[C@H](O)[C@H]1CO [Miglustat]
12,< 5,Cc1[nH]c(=O)c(C#N)cc1-c1ccncc1 [Milrinone]
13,6.5,CCCCCCCCCCCCCCCCOP(=O)([O-])OCC[N+](C)(C)C [Miltefosine]
14,< 5,CN(C)c1ccc(O)c2c1C[C@H]1C[C@H]3[C@H](N(C)C)C(O)=C(C(N)=O)C(=O)[C@@]3(O)C(O)=C1C2=O [Minocycline HCl]
15,31.5,CO[C@@]12[C@H](COC(N)=O)C3=C(C(=O)C(C)=C(N)C3=O)N1C[C@@H]1N[C@@H]12 [Mitomycin c]
16,< 5,CCOC(=O)[N-]c1c[n+](N2CCOCC2)no1 [Molsidomine]
17,76.3,CC(C)(O)c1ccccc1CC[C@@H](SCC1(CC(=O)O)CC1)c1cccc(/C=C/c2ccc3ccc(Cl)cc3n2)c1 [Montelukast]
18,17.2,N=C(N)NC(=N)N1CCOCC1 [Moroxydine HCl]
19,< 5,COc1c(N2C[C@@H]3CCCN[C@@H]3C2)c(F)cc2c(=O)c(C(=O)O)cn(C3CC3)c12 [Moxifloxacin HCl]
20,< 5,COc1c(C)c2c(c(O)c1C/C=C(\C)CCC(=O)O)C(=O)OC2 [Mycophenolic acid]
21,< 5,COc1ccc2cc(CCC(C)=O)ccc2c1 [Nabumetone]
22,< 5,CC1CCc2c(N3CCC(O)CC3)c(F)cc3c(=O)c(C(=O)O)cn1c23 (stereo not drawn) [Nadifloxacin]

# Further lines, the molecule ahead of its results:
row,SMILES,inhibition at 50 µM [%]
1,C[C@@H]1C(=O)O[C@H]2C[C@@]34[C@H]5C[C@@H](C(C)(C)C)[C@]36[C@@H](OC(=O)[C@@H]6O)O[C@@]4(C(=O)O5)[C@]21O [Ginkgolide a],< 5
2,Cc1cnc(C(=O)NCCc2ccc(S(=O)(=O)NC(=O)NC3CCCCC3)cc2)cn1 [Glipizide],< 5
3,CC1(C)[C@@H](O)CC[C@]2(C)[C@H]3C(=O)C=C4[C@@H]5C[C@@](C)(C(=O)O)CC[C@]5(C)CC[C@@]4(C)[C@]3(C)CC[C@@H]12 [Glycyrrhetic acid],< 5
4,CN1[C@@H]2CCC[C@H]1C[C@@H](NC(=O)c1nn(C)c3ccccc13)C2 [Granisetron],< 5
5,COc1ccccc1O [Guaiacol],< 5
6,O=C(CCCN1CCC(O)(c2ccc(Cl)cc2)CC1)c1ccc(F)cc1 [Haloperidol HCl],< 5
7,CC1(C)CC[C@]2(C(=O)O)CC[C@]3(C)C(=CC[C@@H]4[C@@]5(C)CC[C@H](O)[C@@](C)(CO)[C@@H]5CC[C@]43C)[C@@H]2C1 [Hederagenin],36.5
8,CC(C)C(=O)c1c(C(C)C)nn2ccccc12 [Ibudilast],< 5
9,CC(=O)[C@]1(O)Cc2c(O)c3c(c(O)c2[C@@H](O[C@H]2C[C@H](N)[C@H](O)[C@H](C)O2)C1)C(=O)c1ccccc1C3=O [Idarubicin],< 5
10,c1ccc2c(c1)OCC(C1=NCCN1)O2 (stereo not drawn) [Idazoxan],< 5
11,COC1=C(OC)C(=O)C(CCCCCCCCCCO)=C(C)C1=O [Idebenone],< 5
12,CN(C)CCCN1c2ccccc2CCc2ccccc21 [Imipramine HCl],26.5
13,CC(C)[N+]1(C)C2CCC1CC(OC(=O)C(CO)c1ccccc1)C2 (stereo not drawn) [Ipratropium Br],< 5
14,Nc1nc(N)nc(-c2cc(Cl)ccc2Cl)n1 [Irsogladine maleate],< 5
15,O=C(c1ccc(F)cc1)C1CCN(CCn2c(=O)[nH]c3ccccc3c2=O)CC1 [Ketanserin tartrate],< 5
16,CC(C(=O)O)c1cccc(C(=O)c2ccccc2)c1 (stereo not drawn) [Ketoprofen],< 5
17,"N[C@@H](Cc1cc(I)c(Oc2cc(I)c(O)c(I)c2)c(I)c1)C(=O)O [L-thyroxine [(3-[4-(4-hydroxy-3,5-diiodophenoxy)-3,5-diiodophenyl]-l-alanine]]",65.3

row,SMILES,inhibition at 50 µM [%]
1,CS(=O)(=O)CCNCc1ccc(-c2ccc3ncnc(Nc4ccc(OCc5cccc(F)c5)c(Cl)c4)c3c2)o1 [Lapatinib],< 5
2,CC(C)OC(=O)CCC/C=C\C[C@@H]1[C@@H](CC[C@@H](O)CCc2ccccc2)[C@H](O)C[C@@H]1O [Latanoprost],6.9
3,Cc1oncc1C(=O)Nc1ccc(C(F)(F)F)cc1 [Leflunomide],< 5
4,c1ccc([C@H]2CN3CCSC3=N2)cc1 [Levamisole HCl],< 5
5,N[C@@H](Cc1ccc(O)c(O)c1)C(=O)O [Levodopa],< 5
6,C[C@H]1COc2c(N3CCN(C)CC3)c(F)cc3c(=O)c(C(=O)O)cn1c23 [Levofloxacin HCl],< 5
7,C#C[C@]1(O)CC[C@H]2[C@@H]3CCC4=CC(=O)CC[C@@H]4[C@H]3CC[C@@]21CC [Levonorgestrel],< 5
8,CCN(CC)CC(=O)Nc1c(C)cccc1C [Lidocaine],< 5
9,CCC[C@@H]1C[C@@H](C(=O)N[C@@H]([C@H]2O[C@H](SC)[C@H](O)[C@@H](O)[C@H]2O)[C@@H](C)O)N(C)C1 [Lincomycin],< 5
10,CC(=O)NC[C@H]1CN(c2ccc(N3CCOCC3)c(F)c2)C(=O)O1 [Linezolid],< 5
11,NCCCC[C@H](N[C@@H](CCc1ccccc1)C(=O)O)C(=O)N1CCC[C@H]1C(=O)O [Lisinopril],30.5
12,CN1[C@@H](CC(=O)c2ccccc2)CCC[C@H]1C[C@H](O)c1ccccc1 [Lobeline],< 5
13,CN(C)C(=O)C(CCN1CCC(O)(c2ccc(Cl)cc2)CC1)(c1ccccc1)c1ccccc1 [Loperamide],< 5
14,N[C@@H](Cc1ccc(N(CCCl)CCCl)cc1)C(=O)O [Melphalan],< 5
15,O=C1c2c(O)ccc(O)c2C(=O)c2c(NCCNCCO)ccc(NCCNCCO)c21 [Mitoxantrone 2HCl],< 5
16,CCCCC(C#N)(Cn1cncn1)c1ccc(Cl)cc1 (stereo not drawn) [Myclobutanil],< 5
